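Briefly, cells in 96-well plates were exposed to five compound concentrations for 48 h, and endpoints were estimated by linear interpolation. The concentration for full growth arrest is given as TGI.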
Assays:
Test in all cases: NCI-60 cell line screen, 48 h
NCI/ADR-RES ovarian = system: NCI/ADR-RES ovarian
LOX IMVI melanoma = system: LOX IMVI melanoma
EKVX NSCLC = system: EKVX NSCLC
BT-549 breast = system: BT-549 breast
MALME-3M melanoma = system: MALME-3M melanoma
HT29 colon = system: HT29 colon
KM20L2 colon = system: KM20L2 colon
DMS 114 small cell lung = system: DMS 114 small cell lung
M19-MEL melanoma = system: M19-MEL melanoma
UO-31 renal = system: UO-31 renal
LXFL 529 NSCLC = system: LXFL 529 NSCLC
SK-MEL-5 melanoma = system: SK-MEL-5 melanoma
UACC-257 melanoma = system: UACC-257 melanoma
RXF 393 renal = system: RXF 393 renal
COLO 205 colon = system: COLO 205 colon
IGROV1 ovarian = system: IGROV1 ovarian
DU-145 prostate = system: DU-145 prostate
NCI-H23 lung = system: NCI-H23 lung
HOP-18 NSCLC = system: HOP-18 NSCLC
HOP-92 NSCLC = system: HOP-92 NSCLC
XF 498 CNS = system: XF 498 CNS
SR leukemia = system: SR leukemia
MOLT-4 leukemia = system: MOLT-4 leukemia
SN12C renal = system: SN12C renal
DMS 273 small cell lung = system: DMS 273 small cell lung
OVCAR-8 ovarian = system: OVCAR-8 ovarian
NCI-H522 lung = system: NCI-H522 lung
HCT-116 colon = system: HCT-116 colon
OVCAR-3 ovarian = system: OVCAR-3 ovarian
SK-MEL-28 melanoma = system: SK-MEL-28 melanoma
786-0 renal = system: 786-0 renal
SF-295 CNS = system: SF-295 CNS
SF-268 CNS = system: SF-268 CNS
A498 renal = system: A498 renal
MCF7 breast = system: MCF7 breast
TK-10 renal = system: TK-10 renal
UACC-62 melanoma = system: UACC-62 melanoma
HOP-62 NSCLC = system: HOP-62 NSCLC
HL-60(TB) leukemia = system: HL-60(TB) leukemia
NCI-H226 lung = system: NCI-H226 lung
KM12 colon = system: KM12 colon
K-562 leukemia = system: K-562 leukemia
SF-539 CNS = system: SF-539 CNS
MDA-N = system: MDA-N
ACHN renal = system: ACHN renal
SK-OV-3 ovarian = system: SK-OV-3 ovarian
SNB-78 CNS = system: SNB-78 CNS
SW-620 colon = system: SW-620 colon
SK-MEL-2 melanoma = system: SK-MEL-2 melanoma
DLD-1 colon = system: DLD-1 colon
M14 melanoma = system: M14 melanoma
A549 NSCLC = system: A549 NSCLC
RPMI-8226 leukemia = system: RPMI-8226 leukemia
SNB-75 CNS = system: SNB-75 CNS
HCC-2998 colon = system: HCC-2998 colon
U251 CNS = system: U251 CNS
NCI-H460 lung = system: NCI-H460 lung
CCRF-CEM leukemia = system: CCRF-CEM leukemia
OVCAR-5 ovarian = system: OVCAR-5 ovarian
CAKI-1 renal = system: CAKI-1 renal
MDA-MB-231 breast = system: MDA-MB-231 breast
OVCAR-4 ovarian = system: OVCAR-4 ovarian
PC-3 prostate = system: PC-3 prostate
SNB-19 CNS = system: SNB-19 CNS
MDA-MB-435 = system: MDA-MB-435
HCT-15 colon = system: HCT-15 colon
RXF-631 renal = system: RXF-631 renal

COC(COC(N)=O)C1=C(N2CC2)C(=O)C(C)=C(N2CC2)C1=O (configuration not stated)
TGI (NCI/ADR-RES ovarian): 101 nM
TGI (LOX IMVI melanoma): 326 nM
TGI (EKVX NSCLC): 1240 nM
TGI (BT-549 breast): 304 nM
TGI (MALME-3M melanoma): 301 nM
TGI (HT29 colon): 521 nM
TGI (KM20L2 colon): 525 nM
TGI (DMS 114 small cell lung): 380 nM
TGI (M19-MEL melanoma): 507 nM
TGI (UO-31 renal): 79.6 nM
TGI (LXFL 529 NSCLC): 672 nM
TGI (SK-MEL-5 melanoma): 128 nM
TGI (UACC-257 melanoma): 579 nM
TGI (RXF 393 renal): 256 nM
TGI (COLO 205 colon): 389 nM
TGI (IGROV1 ovarian): 995 nM
TGI (DU-145 prostate): 26.4 nM
TGI (NCI-H23 lung): 90.7 nM
TGI (HOP-18 NSCLC): 902 nM
TGI (HOP-92 NSCLC): 1150 nM
TGI (XF 498 CNS): 415 nM
TGI (SR leukemia): 2190 nM
TGI (MOLT-4 leukemia): 7260 nM
TGI (SN12C renal): 1280 nM
TGI (DMS 273 small cell lung): 75.2 nM
TGI (OVCAR-8 ovarian): 240 nM
TGI (NCI-H522 lung): 156 nM
TGI (HCT-116 colon): 134 nM
TGI (OVCAR-3 ovarian): 379 nM
TGI (SK-MEL-28 melanoma): 484 nM
TGI (786-0 renal): 186 nM
TGI (SF-295 CNS): 413 nM
TGI (SF-268 CNS): 624 nM
TGI (A498 renal): 267 nM
TGI (MCF7 breast): 1000 nM
TGI (TK-10 renal): 2640 nM
TGI (UACC-62 melanoma): 173 nM
TGI (HOP-62 NSCLC): 227 nM
TGI (HL-60(TB) leukemia): 2720 nM
TGI (NCI-H226 lung): 299 nM
TGI (KM12 colon): 365 nM
TGI (K-562 leukemia): 1760 nM
TGI (SF-539 CNS): 202 nM
TGI (MDA-N): 269 nM
TGI (ACHN renal): 44.9 nM
TGI (SK-OV-3 ovarian): 1800 nM
TGI (SNB-78 CNS): 8440 nM
TGI (SW-620 colon): 703 nM
TGI (SK-MEL-2 melanoma): 492 nM
TGI (DLD-1 colon): 1030 nM
TGI (M14 melanoma): 147 nM
TGI (A549 NSCLC): 2210 nM
TGI (RPMI-8226 leukemia): 3160 nM
TGI (SNB-75 CNS): 322 nM
TGI (HCC-2998 colon): 311 nM
TGI (U251 CNS): 698 nM
TGI (NCI-H460 lung): 115 nM
TGI (CCRF-CEM leukemia): 24600 nM
TGI (OVCAR-5 ovarian): 710 nM
TGI (CAKI-1 renal): 85 nM
TGI (MDA-MB-231 breast): 859 nM
TGI (OVCAR-4 ovarian): 413 nM
TGI (PC-3 prostate): 1510 nM
TGI (SNB-19 CNS): 1750 nM
TGI (MDA-MB-435): 1420 nM
TGI (HCT-15 colon): 762 nM

COc1cc2cc(OC(C)=O)c3cc4c(cc3c2c(OC)c1OC)OCO4
TGI (LOX IMVI melanoma): > 100000 nM
TGI (EKVX NSCLC): > 100000 nM
TGI (MALME-3M melanoma): > 100000 nM
TGI (HT29 colon): > 100000 nM
TGI (KM20L2 colon): > 100000 nM
TGI (DMS 114 small cell lung): > 100000 nM
TGI (M19-MEL melanoma): > 100000 nM
TGI (UO-31 renal): > 100000 nM
TGI (LXFL 529 NSCLC): > 100000 nM
TGI (SK-MEL-5 melanoma): > 100000 nM
TGI (RXF-631 renal): > 100000 nM
TGI (UACC-257 melanoma): > 100000 nM
TGI (RXF 393 renal): > 100000 nM
TGI (COLO 205 colon): > 100000 nM
TGI (IGROV1 ovarian): > 100000 nM
TGI (NCI-H23 lung): > 100000 nM
TGI (HOP-18 NSCLC): > 100000 nM
TGI (XF 498 CNS): > 100000 nM
TGI (MOLT-4 leukemia): > 100000 nM
TGI (SN12C renal): > 100000 nM
TGI (DMS 273 small cell lung): > 100000 nM
TGI (OVCAR-8 ovarian): > 100000 nM
TGI (NCI-H522 lung): > 100000 nM
TGI (HCT-116 colon): > 100000 nM
TGI (OVCAR-3 ovarian): > 100000 nM
TGI (SK-MEL-28 melanoma): > 100000 nM
TGI (786-0 renal): > 100000 nM
TGI (SF-295 CNS): > 100000 nM
TGI (SF-268 CNS): > 100000 nM
TGI (A498 renal): > 100000 nM
TGI (TK-10 renal): > 100000 nM
TGI (HOP-62 NSCLC): > 100000 nM
TGI (HL-60(TB) leukemia): > 100000 nM
TGI (NCI-H226 lung): > 100000 nM
TGI (KM12 colon): > 100000 nM
TGI (K-562 leukemia): > 100000 nM
TGI (SF-539 CNS): > 100000 nM
TGI (ACHN renal): > 100000 nM
TGI (SK-OV-3 ovarian): > 100000 nM
TGI (SNB-78 CNS): > 100000 nM
TGI (SW-620 colon): > 100000 nM
TGI (SK-MEL-2 melanoma): > 100000 nM
TGI (DLD-1 colon): > 100000 nM
TGI (M14 melanoma): > 100000 nM
TGI (A549 NSCLC): > 100000 nM
TGI (SNB-75 CNS): > 100000 nM
TGI (HCC-2998 colon): > 100000 nM
TGI (U251 CNS): > 100000 nM
TGI (NCI-H460 lung): > 100000 nM
TGI (CCRF-CEM leukemia): > 100000 nM
TGI (OVCAR-5 ovarian): > 100000 nM
TGI (OVCAR-4 ovarian): > 100000 nM
TGI (SNB-19 CNS): > 100000 nM
TGI (HCT-15 colon): > 100000 nM

CC(C)N(C(=O)C12C3C4C5(C#N)C3C1(C#N)C5C42C#N)C(C)C (configuration not stated)
TGI (LOX IMVI melanoma): > 100000 nM
TGI (EKVX NSCLC): > 100000 nM
TGI (MALME-3M melanoma): > 100000 nM
TGI (HT29 colon): > 100000 nM
TGI (KM20L2 colon): > 100000 nM
TGI (DMS 114 small cell lung): > 100000 nM
TGI (M19-MEL melanoma): > 100000 nM
TGI (UO-31 renal): > 100000 nM
TGI (LXFL 529 NSCLC): > 100000 nM
TGI (SK-MEL-5 melanoma): > 100000 nM
TGI (UACC-257 melanoma): > 100000 nM
TGI (COLO 205 colon): > 100000 nM
TGI (IGROV1 ovarian): > 100000 nM
TGI (NCI-H23 lung): > 100000 nM
TGI (HOP-18 NSCLC): > 100000 nM
TGI (XF 498 CNS): > 100000 nM
TGI (MOLT-4 leukemia): > 100000 nM
TGI (SN12C renal): > 100000 nM
TGI (DMS 273 small cell lung): > 100000 nM
TGI (OVCAR-8 ovarian): > 100000 nM
TGI (NCI-H522 lung): > 100000 nM
TGI (HCT-116 colon): > 100000 nM
TGI (OVCAR-3 ovarian): > 100000 nM
TGI (SK-MEL-28 melanoma): > 100000 nM
TGI (786-0 renal): > 100000 nM
TGI (SF-295 CNS): > 100000 nM
TGI (SF-268 CNS): > 100000 nM
TGI (A498 renal): > 100000 nM
TGI (TK-10 renal): > 100000 nM
TGI (UACC-62 melanoma): > 100000 nM
TGI (HOP-62 NSCLC): > 100000 nM
TGI (HL-60(TB) leukemia): > 100000 nM
TGI (NCI-H226 lung): > 100000 nM
TGI (KM12 colon): > 100000 nM
TGI (K-562 leukemia): > 100000 nM
TGI (SF-539 CNS): > 100000 nM
TGI (ACHN renal): > 100000 nM
TGI (SK-OV-3 ovarian): > 100000 nM
TGI (SNB-78 CNS): > 100000 nM
TGI (SW-620 colon): > 100000 nM
TGI (SK-MEL-2 melanoma): > 100000 nM
TGI (DLD-1 colon): > 100000 nM
TGI (A549 NSCLC): > 100000 nM
TGI (RPMI-8226 leukemia): > 100000 nM
TGI (SNB-75 CNS): > 100000 nM
TGI (HCC-2998 colon): > 100000 nM
TGI (U251 CNS): > 100000 nM
TGI (NCI-H460 lung): > 100000 nM
TGI (CCRF-CEM leukemia): > 100000 nM
TGI (OVCAR-5 ovarian): > 100000 nM
TGI (OVCAR-4 ovarian): > 100000 nM
TGI (SNB-19 CNS): > 100000 nM
